In patent US20170197935A1, “INHIBITORS OF DNA GYRASE FOR THE TREATMENT OF BACTERIAL INFECTIONS” (Vitas Pharma Research Private Limited, priority 2012, published 2017):
In brackets after ≈: the same amount, converted by molar mass. Like-named read-outs stand apart in the source and are kept apart here.

Experiments:
[1] = system: Staphylococcus aureus (ATCC 29213); assay: MIC by microbroth dilution, Staphylococcus aureus ATCC 29213; type: cell-based; details: ATCC29213
Protocol: (§1) Shown below are the microbiological activities of representative compounds of Formula I of the invention. The compounds were tested by the microbroth dilution method (National committee for Clinical Laboratory Standards, 2011, […]-08) and the Minimum Inhibitory Concentration (MIC) was determined.

[2] = system: Methicillin resistant Staphylococcus aureus (ATCC 33591); assay: MIC by microbroth dilution, MRSA ATCC 33591; type: cell-based
Protocol: (§2) Shown below are the microbiological activities of representative compounds of Formula I of the invention. The compounds were tested by the microbroth dilution method (National committee for Clinical Laboratory Standards, 2011, M07-08) and the Minimum Inhibitory Concentration (MIC) was determined.
(§3) Analysis of microbiological activity of compounds shown below are the microbiological activities of representative compounds of Formula II of the invention. The compounds were tested by the microbroth dilution method as per the reference in Example 1.

[3] = system: Streptococcus pneumoniae (ATCC 6301); assay: MIC by microbroth dilution, Streptococcus pneumoniae ATCC 6301; type: cell-based; details: ATCC6301
Protocol: as §1

[4] = system: Enterococcus faecalis (ATCC 29212); assay: MIC by microbroth dilution, Enterococcus faecalis ATCC 29212; type: cell-based; details: ATCC29212
Protocol: as §1

E. coli (ATCC 25922) = assay: MIC by microbroth dilution, E. coli ATCC 25922; type: cell-based; details: Escherichia coli
Protocol: as §2, §3

MRSA E9823 = assay: MIC against FQ resistant clinical strain MRSA E9823; type: cell-based; details: Staphylococcus aureus, fluoroquinolone resistant clinical strain, read-out: MIC against FQ resistant strains, MRSA E9823
Protocol: as §2
(§4) To test if compounds are able to overcome fluoroquinolone resistance, we have determined the MICS against Fluoroquinolone (FQ) resistant clinical strains of MRSA and E. coli.

MRSA E9749 = assay: MIC against FQ resistant clinical strain MRSA E9749; type: cell-based; details: Staphylococcus aureus, fluoroquinolone resistant clinical strain, read-out: MIC against FQ resistant strains, MRSA E9749
Protocol: as §2, §4

[5] = system: Moraxella catarrhalis (ATCC 8176); assay: MIC by microbroth dilution, Moraxella catarrhalis ATCC 8176; type: cell-based; details: ATCC8176
Protocol: as §1

[6] = system: K. pneumoniae (ATCC 700603); assay: MIC by microbroth dilution, K. pneumoniae ATCC 700603; type: cell-based; details: Klebsiella pneumoniae, ATCC700603, Formula I compounds
Protocol: as §2, §3

hERG = hERG (Homo sapiens, UniProt Q12809); assay: biochemical
Protocol: To test the ability of the VT-03 compounds to bind the hERG channel, membranes expressing the hERG channel were incubated with radiolabeled Astemizole and displacement of the labeled ligand in the presence of compounds was measured.
To test the ability of the VT-03 compounds (of Formula II) to bind the hERG channel, membranes expressing the hERG channel were incubated with radiolabeled Astemizole and displacement of the labeled ligand in the presence of compounds was measured.

E. faecalis ATCC 51299 = assay: MIC by microbroth dilution, E. faecalis ATCC 51299; type: cell-based; details: Enterococcus faecalis, ATCC51299, Formula II compounds, read-out: Minimum Inhibitory Concentration (MIC) E. faecalis ATCC 51299
Protocol: as §2, §3

[7] = molecular target: T1, ciprofloxacin resistant recombinant Gyrase protein (with mutation S83L) (Escherichia coli, UniProt P0AES4+P0AES6, S83L); assay: Gyrase supercoiling assay with ciprofloxacin resistant Gyrase (S83L); type: biochemical; details: read-out: Target specificity: % inhibition of supercoiling activity
T1 construct: purchased Inspiralis
Protocol: The enzyme is incubated with the substrate (relaxed DNA) in the presence and absence of compounds for 1 hour at 37° C. and the DNA is run on a gel at low voltage for several hours. The amount of supercoiled DNA is quantified using DNA imaging and quantification software (Image Lab). The activity of the enzyme is proportional to the amount of supercoiled form detected.

Acinetobacter BAA747 = assay: MIC by microbroth dilution, Acinetobacter BAA747; type: cell-based; details: Formula II compounds, read-out: Minimum Inhibitory Concentration (MIC) Acinetobacter BAA747
Protocol: as §2, §3

Pseudomonas ATCC 27853 = assay: MIC by microbroth dilution, Pseudomonas ATCC 27853; type: cell-based; details: ATCC27853, Formula II compounds, read-out: Minimum Inhibitory Concentration (MIC) Pseudomonas ATCC 27853
Protocol: as §2, §3

[8] = ATCC33591, Formula I compounds, read-out: MIC Methicillin resistant Staphylococcus aureus (ATCC 33591)
[9] = ATCC25922, Formula I compounds, read-out: MIC E. coli (ATCC 25922)
[10] = Formula II compounds, read-out: Minimum Inhibitory Concentration (MIC) MRSA ATCC 33591
[11] = ATCC25922, Formula II compounds, read-out: Minimum Inhibitory Concentration (MIC) E. coli ATCC 25922

Row | SMILES | MIC [1] [µg/mL] | MIC [2, 8] [µg/mL] | MIC [3] [µg/mL] | MIC [4] [µg/mL] | MIC (E. coli (ATCC 25922); [9]) [µg/mL] | MIC [2, 10] [µg/mL] | MIC (E. coli (ATCC 25922); [11]) [µg/mL] | MIC (E. faecalis ATCC 51299) [µg/mL] | inhibition at 0.1 µM [7] [%] | inhibition at 1 µM [7] [%] | also measured
1 | COc1ccc2ncc(C#N)c(CCN3CCC(NCc4ccc([N+](=O)[O-])s4)CC3)c2c1 [VT-03-00052] | 0.125 (≈ 0.277 µM) | 0.25 (≈ 0.554 µM) | 1 (≈ 2.21 µM) | 4 (≈ 8.86 µM) | 16 (≈ 35.4 µM) | – | – | – | – | – | MIC (MRSA E9823): 0.25 µg/mL (≈ 0.554 µM); MIC (MRSA E9749): 0.25 µg/mL (≈ 0.554 µM)
2 | COc1ccc2ncc(C#N)c(CCN3CCC(NCc4csc([N+](=O)[O-])c4)CC3)c2c1 [VT-03-00053] | 0.25 (≈ 0.554 µM) | 0.25 (≈ 0.554 µM) | 1 (≈ 2.21 µM) | 2 (≈ 4.43 µM) | 4 (≈ 8.86 µM) | – | – | – | – | – | MIC [5]: 0.5 µg/mL (≈ 1.11 µM); MIC [6]: > 32 µg/mL; IC50 (hERG): > 30 µM
3 | COc1ccc2ncc(C#N)c(CCN3CCC(NC(=O)c4ccc(Cl)c([N+](=O)[O-])c4)CC3)c2c1 [VT-03-00058] | 0.015 (≈ 0.0304 µM) | 0.06 (≈ 0.121 µM) | 0.03 (≈ 0.0607 µM) | 0.25 (≈ 0.506 µM) | 1 (≈ 2.02 µM) | – | – | – | – | – | MIC [5]: 0.5 µg/mL (≈ 1.01 µM); MIC [6]: 16 µg/mL (≈ 32.4 µM); IC50 (hERG): > 30 µM
4 | COc1ccc2ncc(C#N)c(CCN3CCC(NCc4ccc(OC)c([N+](=O)[O-])c4)CC3)c2c1 [VT-03-00063] | 0.25 (≈ 0.526 µM) | 0.5 (≈ 1.05 µM) | 0.25 (≈ 0.526 µM) | 2 (≈ 4.21 µM) | 4 (≈ 8.41 µM) | – | – | – | – | – | MIC [5]: 0.25 µg/mL (≈ 0.526 µM); MIC [6]: > 32 µg/mL; IC50 (hERG): > 30 µM
5 | COc1ccc2ncc(=O)n(CCN3CCC(NCc4ccc(C)c(F)c4)CC3)c2n1 [VT-03-00101] | – | – | – | – | – | 4 (≈ 9.4 µM) | > 16 | 16 (≈ 37.6 µM) | 95.9 | 92.3 | –
6 | Cc1ccc(CNC2CCN(CCn3c(=O)cnc4ccc(Br)cc43)CC2)cc1F [VT-03-00102] | – | – | – | – | – | ≤ 0.0075 | 8 (≈ 16.9 µM) | 0.5 (≈ 1.06 µM) | 96.5 | 95.3 | –
7 | Cc1ccc(CNC2CCN(CCn3c(=O)cnc4ccc(C#N)cc43)CC2)cc1F [VT-03-00103] | – | – | – | – | – | 0.03 (≈ 0.0715 µM) | 0.5 (≈ 1.19 µM) | 0.25 (≈ 0.596 µM) | 55.8 | 87.5 | MIC (Acinetobacter BAA747): 1 µg/mL (≈ 2.38 µM); MIC (Pseudomonas ATCC 27853): 32 µg/mL (≈ 76.3 µM)
8 | Cc1ccc(CNC2CCN(CCN3C(=O)CNc4ccc(Cl)nc43)CC2)cc1F [VT-03-00107] | – | – | – | – | – | 0.06 (≈ 0.139 µM) | 1 (≈ 2.32 µM) | 0.5 (≈ 1.16 µM) | – | – | –
9 | CNC(=O)c1ccc2ncc(=O)n(CCN3CCC(NCc4ccc(C)c([N+](=O)[O-])c4)CC3)c2c1 [VT-03-00108] | – | – | – | – | – | 0.25 (≈ 0.522 µM) | 8 (≈ 16.7 µM) | 2 (≈ 4.18 µM) | – | – | –
10 | CNC(=O)c1ccc2ncc(=O)n(CCN3CCC(NCc4ccc(C)c(F)c4)CC3)c2c1 [VT-03-00109] | – | – | – | – | – | 1 (≈ 2.21 µM) | 16 (≈ 35.4 µM) | 2 (≈ 4.43 µM) | – | – | –
11 | Cc1ccc(CNC2CCN(CCn3c(=O)cnc4ccc(Cl)nc43)CC2)cc1F [VT-03-00111] | – | – | – | – | – | 0.125 (≈ 0.291 µM) | 1 (≈ 2.33 µM) | 0.5 (≈ 1.16 µM) | 90.4 | 87.6 | –
